Measured values published in the OligoGym collection.
HELM strings list units from the 5' end as sugar, base in round brackets, then linkage (d deoxyribose, r ribose, m 2'-O-methyl, p phosphodiester). Strings are as the collection lists them; they lack the last nucleoside at the 3' end of the tested compound. [moe] = 2'-O-(2-methoxyethyl) (MOE); [sp] = phosphorothioate linkage; [m5C] = 5-methylcytosine

Biological target: SCN2A
Test: mouse, dose not given
Details: ASO

Substance: RNA1{[moe](A)[sp].[moe](G)p.[moe](T)p.[moe](T)p.d(T)[sp].d(T)[sp].d(T)[sp].d(T)[sp].d([m5C])[sp].d(A)[sp].d(T)[sp].d(T)[sp].d(G)[sp].d([m5C])[sp].[moe](A)p.[moe](T)p.[moe]([m5C])p.[moe]([m5C])[sp].[moe](T)}$$$$ (last 3' nucleoside missing)
- 3 h FOB score: 3 score 0-7

Substance: RNA1{[moe](G)[sp].[moe]([m5C])p.[moe](A)p.[moe](T)p.[moe](G)p.[moe](T)p.d(T)[sp].d(T)[sp].d(A)[sp].d(T)[sp].d([m5C])[sp].d(T)[sp].d(T)[sp].d(A)[sp].d(G)[sp].d(T)[sp].[moe](T)p.[moe]([m5C])[sp].[moe](T)}$$$$ (last 3' nucleoside missing)
- 3 h FOB score: 1.67 score 0-7

Substance: RNA1{[moe]([m5C])[sp].[moe]([m5C])p.[moe](A)p.[moe]([m5C])p.d(G)[sp].d(A)[sp].d([m5C])[sp].d(A)[sp].d(T)[sp].d(A)[sp].d(T)[sp].d(T)[sp].d(T)[sp].d(T)[sp].[moe](T)p.[moe]([m5C])p.[moe](T)p.[moe](A)[sp].[moe]([m5C])}$$$$ (last 3' nucleoside missing)
- 3 h FOB score: 1 score 0-7

Substance: RNA1{[moe](A)[sp].[moe](T)p.[moe](T)p.[moe](T)p.[moe]([m5C])p.[moe](T)p.d(A)[sp].d(T)[sp].d(A)[sp].d(A)[sp].d([m5C])[sp].d(T)[sp].d([m5C])[sp].d(A)[sp].d(G)[sp].d([m5C])[sp].[moe](A)p.[moe](A)[sp].[moe]([m5C])}$$$$ (last 3' nucleoside missing)
- 3 h FOB score: 1 score 0-7

Substance: RNA1{[moe](A)[sp].[moe]([m5C])p.[moe](G)p.[moe](A)p.[moe]([m5C])p.[moe](A)p.d(T)[sp].d(A)[sp].d(T)[sp].d(T)[sp].d(T)[sp].d(T)[sp].d(T)[sp].d([m5C])[sp].d(T)[sp].d(A)[sp].[moe]([m5C])p.[moe](A)[sp].[moe]([m5C])}$$$$ (last 3' nucleoside missing)
- 3 h FOB score: 0 score 0-7

Substance: RNA1{[moe](G)[sp].[moe]([m5C])p.[moe](A)p.[moe](T)p.d(G)[sp].d(T)[sp].d(T)[sp].d(T)[sp].d(A)[sp].d(T)[sp].d([m5C])[sp].d(T)[sp].d(T)[sp].d(A)[sp].[moe](G)p.[moe](T)p.[moe](T)p.[moe]([m5C])[sp].[moe](T)}$$$$ (last 3' nucleoside missing)
- 3 h FOB score: 0 score 0-7

Substance: RNA1{[moe](A)[sp].[moe]([m5C])p.[moe]([m5C])p.[moe](G)p.[moe](A)p.[moe](A)p.d(T)[sp].d(T)[sp].d([m5C])[sp].d(T)[sp].d(A)[sp].d(T)[sp].d(T)[sp].d(T)[sp].d(T)[sp].d(A)[sp].[moe](T)p.[moe](A)[sp].[moe](A)}$$$$ (last 3' nucleoside missing)
- 3 h FOB score: 1.67 score 0-7

Substance: RNA1{[moe](A)[sp].[moe](G)p.[moe]([m5C])p.[moe](A)p.[moe](T)p.d(G)[sp].d(T)[sp].d(T)[sp].d(T)[sp].d(A)[sp].d(T)[sp].d([m5C])[sp].d(T)[sp].d(T)[sp].d(A)[sp].[moe](G)p.[moe](T)p.[moe](T)[sp].[moe]([m5C])}$$$$ (last 3' nucleoside missing)
- 3 h FOB score: 0 score 0-7

Substance: RNA1{[moe](A)[sp].[moe](T)p.[moe](T)p.[moe]([m5C])p.d(T)[sp].d(A)[sp].d(T)[sp].d(T)[sp].d(T)[sp].d(T)[sp].d(A)[sp].d(T)[sp].d(A)[sp].d(A)[sp].[moe](A)p.[moe](T)p.[moe](G)p.[moe]([m5C])[sp].[moe]([m5C])}$$$$ (last 3' nucleoside missing)
- 3 h FOB score: 2.67 score 0-7

Substance: RNA1{[moe]([m5C])[sp].[moe](T)p.[moe](A)p.[moe](T)[sp].d(T)[sp].d(T)[sp].d(T)[sp].d(A)[sp].d(T)[sp].d(A)[sp].d(A)[sp].d(A)[sp].[moe](T)p.[moe](G)p.[moe]([m5C])p.[moe]([m5C])[sp].[moe](G)}$$$$ (last 3' nucleoside missing)
- 3 h FOB score: 0 score 0-7

Substance: RNA1{[moe]([m5C])[sp].[moe](G)p.[moe](T)p.[moe]([m5C])p.d(T)[sp].d([m5C])[sp].d(T)[sp].d(T)[sp].d(T)[sp].d([m5C])[sp].d(T)[sp].d(T)[sp].d(A)[sp].d(T)[sp].[moe](T)p.[moe](T)p.[moe]([m5C])p.[moe](T)[sp].[moe](G)}$$$$ (last 3' nucleoside missing)
- 3 h FOB score: 1 score 0-7

Substance: RNA1{[moe](A)[sp].[moe](A)p.[moe](T)p.[moe]([m5C])p.[moe](A)p.d([m5C])[sp].d(T)[sp].d(T)[sp].d(T)[sp].d([m5C])[sp].d(A)[sp].d(T)[sp].d([m5C])[sp].d([m5C])[sp].d(A)[sp].[moe]([m5C])p.[moe](G)p.[moe](A)[sp].[moe]([m5C])}$$$$ (last 3' nucleoside missing)
- 3 h FOB score: 0 score 0-7

Substance: RNA1{[moe](T)[sp].[moe](T)p.[moe]([m5C])p.[moe](T)p.[moe](A)p.[moe](T)p.d(T)[sp].d(T)[sp].d(T)[sp].d(A)[sp].d(T)[sp].d(A)[sp].d(A)[sp].d(A)[sp].d(T)[sp].d(G)[sp].[moe]([m5C])p.[moe]([m5C])[sp].[moe](G)}$$$$ (last 3' nucleoside missing)
- 3 h FOB score: 3 score 0-7

Substance: RNA1{[moe]([m5C])[sp].[moe](A)p.[moe](G)p.[moe]([m5C])p.d(A)[sp].d(T)[sp].d(G)[sp].d(T)[sp].d(T)[sp].d(T)[sp].d(A)[sp].d(T)[sp].d([m5C])[sp].d(T)[sp].[moe](T)p.[moe](A)p.[moe](G)p.[moe](T)[sp].[moe](T)}$$$$ (last 3' nucleoside missing)
- 3 h FOB score: 0 score 0-7

Substance: RNA1{[moe](G)[sp].[moe](T)p.[moe](A)p.[moe](A)p.d(T)[sp].d([m5C])[sp].d(A)[sp].d([m5C])[sp].d(T)[sp].d(T)[sp].d(T)[sp].d([m5C])[sp].d(A)[sp].d(T)[sp].[moe]([m5C])p.[moe]([m5C])p.[moe](A)p.[moe]([m5C])[sp].[moe](G)}$$$$ (last 3' nucleoside missing)
- 3 h FOB score: 2 score 0-7

Substance: RNA1{[moe](A)[sp].[moe](T)p.[moe](T)p.[moe]([m5C])p.[moe](T)p.d(G)[sp].d([m5C])[sp].d(A)[sp].d(T)[sp].d(G)[sp].d(T)[sp].d(A)[sp].d(A)[sp].d([m5C])[sp].d([m5C])[sp].[moe](T)p.[moe](T)p.[moe](T)[sp].[moe](A)}$$$$ (last 3' nucleoside missing)
- 3 h FOB score: 3 score 0-7

Substance: RNA1{[moe](T)[sp].[moe](T)p.[moe](G)p.[moe](A)p.[moe]([m5C])p.d([m5C])[sp].d(A)[sp].d([m5C])[sp].d(G)[sp].d([m5C])[sp].d(T)[sp].d(T)[sp].d(A)[sp].d([m5C])[sp].d(A)[sp].[moe](T)p.[moe]([m5C])p.[moe](A)[sp].[moe](A)}$$$$ (last 3' nucleoside missing)
- 3 h FOB score: 2 score 0-7

Substance: RNA1{[moe](T)[sp].[moe](G)p.[moe]([m5C])p.[moe]([m5C])p.[moe](A)p.[moe](T)p.d(T)[sp].d(T)[sp].d([m5C])[sp].d(T)[sp].d(A)[sp].d(T)[sp].d(A)[sp].d(A)[sp].d([m5C])[sp].d(T)[sp].[moe]([m5C])p.[moe](A)[sp].[moe](G)}$$$$ (last 3' nucleoside missing)
- 3 h FOB score: 0 score 0-7

Substance: RNA1{[moe](G)[sp].[moe]([m5C])p.[moe]([m5C])p.[moe](A)p.d(T)[sp].d(T)[sp].d(T)[sp].d([m5C])[sp].d(T)[sp].d(A)[sp].d(T)[sp].d(A)[sp].d(A)[sp].d([m5C])[sp].[moe](T)p.[moe]([m5C])p.[moe](A)p.[moe](G)[sp].[moe]([m5C])}$$$$ (last 3' nucleoside missing)
- 3 h FOB score: 0 score 0-7

Substance: RNA1{[moe](G)[sp].[moe](T)p.[moe](A)p.[moe](A)p.d([m5C])[sp].d([m5C])[sp].d(T)[sp].d(T)[sp].d(T)[sp].d(A)[sp].d(T)[sp].d(A)[sp].d([m5C])[sp].d(A)[sp].[moe](T)p.[moe](T)p.[moe](T)p.[moe](A)[sp].[moe](A)}$$$$ (last 3' nucleoside missing)
- 3 h FOB score: 0 score 0-7

Substance: RNA1{[moe](T)[sp].[moe]([m5C])p.[moe]([m5C])p.[moe](A)p.[moe]([m5C])p.[moe](G)p.d(A)[sp].d([m5C])[sp].d(A)[sp].d(T)[sp].d(A)[sp].d(T)[sp].d(T)[sp].d(T)[sp].d(T)[sp].d(T)[sp].[moe]([m5C])p.[moe](T)[sp].[moe](A)}$$$$ (last 3' nucleoside missing)
- 3 h FOB score: 0 score 0-7

Substance: RNA1{[moe](G)[sp].[moe](A)p.[moe](A)p.[moe](T)p.[moe](T)p.d([m5C])[sp].d(T)[sp].d(A)[sp].d(T)[sp].d(T)[sp].d(T)[sp].d(T)[sp].d(A)[sp].d(T)[sp].d(A)[sp].[moe](A)p.[moe](A)p.[moe](T)[sp].[moe](G)}$$$$ (last 3' nucleoside missing)
- 3 h FOB score: 1 score 0-7

Substance: RNA1{[moe](A)[sp].[moe](T)p.[moe](A)p.[moe](T)p.[moe](T)p.[moe](T)p.d(T)[sp].d(T)[sp].d([m5C])[sp].d(T)[sp].d(A)[sp].d([m5C])[sp].d(A)[sp].d([m5C])[sp].d(T)[sp].d(G)[sp].[moe]([m5C])p.[moe](T)[sp].[moe](G)}$$$$ (last 3' nucleoside missing)
- 3 h FOB score: 2 score 0-7

Substance: RNA1{[moe](A)[sp].[moe]([m5C])p.[moe]([m5C])p.[moe](A)p.d([m5C])[sp].d(G)[sp].d([m5C])[sp].d(T)[sp].d(T)[sp].d(A)[sp].d([m5C])[sp].d(A)[sp].d(T)[sp].d([m5C])[sp].[moe](A)p.[moe](A)p.[moe](A)p.[moe]([m5C])[sp].[moe](A)}$$$$ (last 3' nucleoside missing)
- 3 h FOB score: 0 score 0-7

Substance: RNA1{[moe](T)[sp].[moe](T)p.[moe]([m5C])p.[moe](T)p.[moe](G)p.d([m5C])[sp].d(A)[sp].d(T)[sp].d(G)[sp].d(T)[sp].d(A)[sp].d(A)[sp].d([m5C])[sp].d([m5C])[sp].d(T)[sp].[moe](T)p.[moe](T)p.[moe](A)[sp].[moe](T)}$$$$ (last 3' nucleoside missing)
- 3 h FOB score: 1 score 0-7

Substance: RNA1{[moe](T)[sp].[moe]([m5C])p.[moe](A)p.[moe](G)p.[moe]([m5C])p.[moe](A)p.d(T)[sp].d(G)[sp].d(T)[sp].d(T)[sp].d(T)[sp].d(A)[sp].d(T)[sp].d([m5C])[sp].d(T)[sp].d(T)[sp].[moe](A)p.[moe](G)[sp].[moe](T)}$$$$ (last 3' nucleoside missing)
- 3 h FOB score: 0 score 0-7
